Results as given in US12167998B2, “Spiro-lactam NMDA receptor modulators and uses thereof” (Tenacia Biotechnology (Hong Kong) Co., Limited, priority 2013, dated 2024).
Where two headings read alike, the source gives them in different places. One block for each compound: values may come before it.

What was measured:
[1] = molecular target: NMDA receptor glycine site, rat cortical membranes (Rattus norvegicus (Rat), UniProt P35439); test: [3H] MK-801 binding assay (potentiation of [3H]MK-801 binding)
Protocol: Assays were conducted as described in Moskal et al. (Moskal, J. R., Kuo, A. G., Weiss, C., Wood, P. L., O'Connor Hanson, A., Kelso, S., Harris, R. B., Disterhoft, J. F., 2005. GLYX-13: a monoclonal antibody-derived peptide that acts as an N-methyl-D-aspartate receptor modulator. Neuropharmacology. 49, 1077-87) The potentiation of [^3H]MK-801 binding (5 nM; 22.5 Ci/mmol) to well washed rat cortical membranes (200 μg) was measured under non-equilibrium conditions (15 min @ 25° C.) in the presence of increasing concentrations of test compounds and […]. Zero levels were determined in the absence of any glycine ligand and in the presence of 30 μM 5.7 DCKA. Maximal stimulation was measured in the presence of 1 mM glycine, and 500 μM glutamate was present in all samples. The facilitation of [^3H]MK-801 binding by tests compounds was calculated by using a 3 parameter log agonist vs. response equation (Graph pad Prism, USA) and potency (EC50, expressed in pM) and maximal activity (% maximal stimulation) were calculated for the test compound.

[2] = system: hippocampal slices, Schaffer collateral-CA1; test: Long term potentiation in hippocampal slices; type: cell-based, rat; details: for LTP: LTP Augmentation (%): Table 4
Protocol: Assays were conducted as described in Zhang et al. (Zhang, X. L., Sullivan, J. A., Moskal, J. R., Stanton, P. K., 2008. A NMDA receptor glycine site partial agonist, GLYX-13, simultaneously enhances LTP and reduces LTD at Schaffer collateral-CA1 synapses in hippocampus. Neuropharmacology. 55, 1238-50) Sprague-Dawley rats (12-18 days old; Taconic Farms) were deeply anesthetized with isoflurane and decapitated. Rat brains were removed rapidly, submerged in ice-cold artificial cerebrospinal fluid (ACSF, 2-4° C.), which contained (in mM): 124 NaCl, 4 KCl, 2 MgSO4, 2 CaCl2, 1.25 NaH2PO4, 26 NaHCO3, 10 glucose; at pH 7.4, gassed continuously with 95% O2/5% CO2). The rat brains were hemisected, the frontal lobes cut off, and individual hemispheres glued using cyanoacrylate adhesive onto a stage immersed in ice-cold ACSF gassed continuously with 95% O2/5% CO2 during slicing. Coronal slices (400 μm thick) were cut using a Vibratome (Leica VT1200S), and transferred to an interface holding chamber for incubation at room temperature for a minimum of one hour before transferring to a Haas-style interface recording chamber continuously perfused at 3 ml/min with oxygenated ACSF at 32±0.5° C. Low resistance recording electrodes were made from thin-walled borosilicate glass (1-2 MΩ after filling with ACSF) and inserted into the apical dendritic region of the Schaffer collateral termination field in stratum radiatum of field CA1 region to record field excitatory postsynaptic potentials (fEPSPs). A bipolar stainless steel stimulating electrode (FHC Co.) was placed on Schaffer collateral-commissural fibers in CA3 stratum radiatum, and constant current stimulus intensity adjusted to evoke approximately half-maximal fEPSPs once each 30 s ([…]; 100 μs duration). fEPSP slope was measured before and after induction of LTP by linear interpolation from 20 to 80% of maximum negative deflection, and slopes confirmed to be stable to within ±10% for at least 15 min before commencing an experiment. […] LTP was induced by stimulation of Schaffer collateral axons with four high frequency theta burst stimulus trains of 10×100 Hz/5 pulse bursts each, applied at an inter-burst interval of 200 ms. Each train was 2 seconds in duration, and trains were applied 15 seconds apart. The signals were recorded using a Multiclamp 700B amplifier and digitized with a Digidata 1322 (Axon Instruments, USA). Data were analyzed using pClamp software (version 9, Axon Instruments) on an IBM-compatible personal computer.

[3] = Porsolt test, floating time inhibition; type: in vivo; details: 1 hour post dose
[4] = Table 3, read-out: [3H] MK-801 binding assay: EC50
[5] = Table 4, rat cortex, read-out: MK-801 Glycine Site Binding Assay: Rat Cortex EC50

Structure (SMILES): CC(N)C(C(N)=O)N1CC2(CCCN2)C1=O (stereo not drawn) [Compound 2S-FNL-7, 3-amino-2-(1-oxo-2,5-diazaspiro[3.4]octan-2-yl)butanamide]
EC50 [1, 4]: 11 nM

Structure (SMILES): C[C@@H](O)[C@@H](C(N)=O)N1CC2(CCCN2)C1=O (stereo partly drawn) [Compound 2S-FNL-3, (2S,3R)-3-hydroxy-2-(1-oxo-2,5-diazaspiro[3.4]octan-2-yl) butanamide]
Unified Activity Data: LTP Augmentation (Percent) ([2]; LTP concentration 1 uM): 130% | Unified Activity Data: Porsolt Floating Time Inhibition (Percent) ([3]; 3 mg/kg IV): 80% | EC50 [1, 4]: 54.3 nM

Structure (SMILES): C[C@@H](O)[C@@H](C(=O)NCc1ccccc1)N1CC2(CCCN2C(=O)OC(C)(C)C)C1=O (stereo partly drawn) [Compound 2S-FNL-10, tert-butyl 2-((2S,3R)-1-(benzylamino)-3-hydroxy-1-oxobutan-2-yl)-1-oxo-2,5-diazaspiro[3.4] octane-5-carboxylate]
LTP: LTP Augmentation (%) ([2]; LTP concentration 1 uM): 90% | EC50 [1, 5]: 0.00119 nM

Structure (SMILES): NC(=O)[C@H](CO)N1CC2(CCCN2)C1=O (stereo partly drawn) [Compound 2S-FNL-21, (2S)-3-hydroxy-2-(1-oxo-2,5-diazaspiro[3.4]octan-2-yl)propanamide]
Unified Activity Data: LTP Augmentation (Percent) ([2]; LTP concentration 0.1 uM): 80%

Structure (SMILES): C[C@@H](O)[C@@H](C(N)=O)N1CC2(CCCN2C(=O)OC(C)(C)C)C1=O (stereo partly drawn) [Compound 2S-FNL-2, tert-butyl 2-((2S,3R)-1-amino-3-hydroxy-1-oxobutan-2-yl)-1-oxo-2,5-diazaspiro[3,4] octane-5-carboxylate]
EC50 [1, 5]: 20 nM

Structure (SMILES): CC1CCC2(CN([C@H](C(N)=O)[C@@H](C)O)C2=O)N1 (stereo partly drawn) [Compound 2S-FNL-34, (2S,3R)-3-hydroxy-2-(6-methyl-1-oxo-2,5-diazaspiro[3.4]octan-2-yl) butanamide]
Unified Activity Data: LTP Augmentation (Percent) ([2]; LTP concentration 0.1 uM): 100% | Unified Activity Data: Porsolt Floating Time Inhibition (Percent) ([3]; 1 mg/kg PO): 73%

Structure (SMILES): CC(=O)O[C@H](C)[C@@H](C(=O)N1CCCC1)N1CC2(CCCN2)C1=O (stereo partly drawn) [Compound 2S-FNL-27, (2R,3S)-4-oxo-3-(1-oxo-2,5-diazaspiro[3.4]octan-2-yl)-4-(pyrrolidin-1-yl) butan-2-yl acetate]
EC50 [1, 4]: 0.00349 nM

Second part, led by results:

EC50 [1, 5]: 0.0613 nM
Structure (SMILES): C[C@@H](O)[C@@H](C(=O)NCc1ncno1)N1CC2(CCCN2C(=O)OC(C)(C)C)C1=O (stereo partly drawn) [Compound 2S-FNL-14, tert-butyl 2-((2S,3R)-1-(((1,2,4-oxadiazol-5-yl)methyl)amino)-3-hydroxy-1-oxobutan-2-yl)-1-oxo-2,5-diazaspiro[3.4] octane-5-carboxylate]
LTP: LTP Augmentation (%) ([2]; LTP concentration 1 uM): 120%

Emax ([1]; maximal stimulation measured with 1 mM glycine): 38% | pEC50 ([1]; rat cortical membranes, 50 μM glutamate): 7.4 | EC50 ([1]; rat cortical membranes, 50 μM glutamate, read-out: pEC50 (converted)): 39.8 nM
Structure (SMILES): C[C@@H](O)[C@@H](C(N)=O)N1CC2(CCCN2)C1=O (stereo partly drawn) [Compound X, (2S,3R)-3-hydroxy-2-(1-oxo-2,5-diazaspiro[3,4]octan-2-yl)butanamide]
long-term potentiation after high frequency stimulation of Schaffer collateral-evoked NMDA e.p.s.c.s in CA1 pyramidal neurons ([2]; tested at 1 μM, FIG. 2): increased long-term potentiation

EC50 [1, 5]: 3.31 nM
Structure (SMILES): CC1CCC2(N1)C(=O)N([C@H](C(=O)N1CCCC1)[C@@H](C)O)C2C (stereo partly drawn) [Compound 2S-FNL-38, 2-((2S,3R)-3-hydroxy-1-oxo-1-(pyrrolidin-1-yl)butan-2-yl)-3,6-dimethyl-2,5-diazaspiro[3.4]octan-1-one]

EC50 [1, 5]: 18.9 nM
Structure (SMILES): CC1CCC2(CN([C@H](C(N)=O)[C@@H](C)O)C2=O)N1C(=O)OC(C)(C)C (stereo partly drawn) [Compound 2S-FNL-33, tert-butyl 2-((2S,3R)-1-amino-3-hydroxy-1-oxobutan-2-yl)-6-methyl-1-oxo-2,5-diazaspiro[3.4] octane-5-carboxylate]
LTP: LTP Augmentation (%) ([2]; LTP concentration 1 uM): 140%
